Where “and” joins values, the source holds several entries; their conditions need not be identical. Identical values can stand only once.
Conditions: Fluid (supercritical or subcritical phases), Buoyancy - hydrostatic balance with magnetic suspension - two sinkers

CCC [propane]
Conditions | mass density
380 K, 4703.9 kPa | 148.078 kg/m3 [middle of 5 runs]
380 K, 4705.6 kPa | 148.36 kg/m3 [middle of 4 runs]
380 K, 4705.7 kPa | 148.363 kg/m3
380 K, 4755.7 kPa | 155.492 kg/m3 [middle of 5 runs]
380 K, 4879.5 kPa | 178.216 kg/m3 and 178.213 kg/m3
380 K, 4879.6 kPa | 178.236 kg/m3 and 178.204 kg/m3 and 178.214 kg/m3
380 K, 4957.6 kPa | 197.127 kg/m3
380 K, 4957.7 kPa | 197.117 kg/m3 and 197.11 kg/m3
380 K, 4957.8 kPa | 197.115 kg/m3 [middle of 4 runs]
380 K, 4957.9 kPa | 197.119 kg/m3
380 K, 5001.3 kPa | 208.689 kg/m3
380 K, 5001.5 kPa | 208.739 kg/m3
380 K, 5002.2 kPa | 208.955 kg/m3 and 208.946 kg/m3 and 208.942 kg/m3
380 K, 5002.3 kPa | 208.948 kg/m3 and 208.946 kg/m3
380 K, 5041.6 kPa | 219.674 kg/m3 and 219.68 kg/m3 and 219.675 kg/m3
380 K, 5041.7 kPa | 219.681 kg/m3 [middle of 4 runs]
380 K, 5067.9 kPa | 226.412 kg/m3 and 226.42 kg/m3
380 K, 5068 kPa | 226.427 kg/m3
380 K, 5068.1 kPa | 226.418 kg/m3
380 K, 5141.5 kPa | 243.559 kg/m3 and 243.562 kg/m3 and 243.564 kg/m3
380 K, 5141.6 kPa | 243.563 kg/m3 [middle of 5 runs]
380 K, 5268.6 kPa | 264.989 kg/m3 and 264.991 kg/m3
380 K, 5268.8 kPa | 264.985 kg/m3 and 264.995 kg/m3
380 K, 5408.3 kPa | 280.991 kg/m3 [middle of 4 runs]
380 K, 5408.4 kPa | 280.991 kg/m3 and 280.992 kg/m3 and 280.986 kg/m3
380 K, 6684.1 kPa | 336.97 kg/m3 and 336.962 kg/m3
380 K, 6684.2 kPa | 336.972 kg/m3
380 K, 6684.3 kPa | 336.974 kg/m3 and 336.97 kg/m3
380 K, 6684.4 kPa | 336.974 kg/m3
380 K, 7975.3 kPa | 360.582 kg/m3
380 K, 7975.4 kPa | 360.58 kg/m3
380 K, 7975.5 kPa | 360.582 kg/m3 [middle of 6 runs]
380 K, 7975.6 kPa | 360.58 kg/m3 and 360.581 kg/m3
380 K, 7975.7 kPa | 360.586 kg/m3
380 K, 7975.8 kPa | 360.584 kg/m3 and 360.583 kg/m3
380 K, 10919 kPa | 391.154 kg/m3 [middle of 4 runs]
380 K, 10920 kPa | 391.156 kg/m3 and 391.155 kg/m3
380 K, 11880 kPa | 398.187 kg/m3 and 398.185 kg/m3
380 K, 11881 kPa | 398.189 kg/m3 and 398.186 kg/m3
380 K, 15945 kPa | 420.987 kg/m3 and 420.99 kg/m3
380 K, 15946 kPa | 420.986 kg/m3
380 K, 19820 kPa | 436.807 kg/m3 and 436.806 kg/m3
380 K, 19821 kPa | 436.811 kg/m3 and 436.808 kg/m3 and 436.81 kg/m3
380 K, 23098 kPa | 447.702 kg/m3 [middle of 5 runs]
380 K, 23099 kPa | 447.703 kg/m3 and 447.702 kg/m3
380 K, 23697 kPa | 449.488 kg/m3 and 449.487 kg/m3 and 449.489 kg/m3
380 K, 29645 kPa | 465.242 kg/m3 and 465.241 kg/m3
380 K, 29646 kPa | 465.242 kg/m3 and 465.241 kg/m3
380 K, 34344 kPa | 475.596 kg/m3 [middle of 4 runs]
380 K, 34345 kPa | 475.597 kg/m3
380.01 K, 954.8 kPa | 14.3809 kg/m3
380.01 K, 954.81 kPa | 14.381 kg/m3
380.01 K, 3513.7 kPa | 73.3411 kg/m3
380.01 K, 5268.9 kPa | 264.989 kg/m3
380.01 K, 6684.6 kPa | 336.973 kg/m3
380.01 K, 6684.7 kPa | 336.971 kg/m3
400 K, 336.43 kPa | 4.5554 kg/m3 and 4.5553 kg/m3
400 K, 599.95 kPa | 8.2683 kg/m3
400 K, 599.96 kPa | 8.2685 kg/m3 and 8.2684 kg/m3
400 K, 956.18 kPa | 13.5094 kg/m3
400 K, 957.16 kPa | 13.5243 kg/m3
400 K, 957.89 kPa | 13.5351 kg/m3
400 K, 959.04 kPa | 13.5529 kg/m3
400 K, 962.98 kPa | 13.6116 kg/m3
400 K, 1542.1 kPa | 22.7724 kg/m3
400 K, 1542.2 kPa | 22.7738 kg/m3 and 22.7745 kg/m3
400 K, 1542.3 kPa | 22.7764 kg/m3
400 K, 1542.4 kPa | 22.7771 kg/m3
400 K, 2380.3 kPa | 37.7472 kg/m3 and 37.7486 kg/m3 and 37.7481 kg/m3
400 K, 2380.5 kPa | 37.7508 kg/m3 and 37.7503 kg/m3
400 K, 3308.6 kPa | 57.6872 kg/m3 [middle of 5 runs]
400 K, 3901.8 kPa | 73.2165 kg/m3 [middle of 4 runs]
400 K, 3901.9 kPa | 73.2188 kg/m3
400 K, 3902 kPa | 73.2191 kg/m3
400 K, 4691.9 kPa | 99.4254 kg/m3 and 99.4238 kg/m3 and 99.4251 kg/m3
400 K, 4692 kPa | 99.4292 kg/m3 and 99.4262 kg/m3
400 K, 5668.4 kPa | 147.912 kg/m3
400 K, 5668.5 kPa | 147.917 kg/m3 [middle of 6 runs]
400 K, 5673.1 kPa | 148.232 kg/m3
400 K, 5673.2 kPa | 148.239 kg/m3 and 148.234 kg/m3 and 148.236 kg/m3
400 K, 5673.3 kPa | 148.236 kg/m3
400 K, 5676.5 kPa | 148.439 kg/m3 and 148.438 kg/m3
400 K, 5676.6 kPa | 148.445 kg/m3 and 148.444 kg/m3 and 148.437 kg/m3
400 K, 5676.7 kPa | 148.447 kg/m3 [middle of 8 runs]
400 K, 5676.8 kPa | 148.451 kg/m3 [middle of 9 runs]
400 K, 5676.9 kPa | 148.458 kg/m3 [middle of 6 runs]
400 K, 5677 kPa | 148.462 kg/m3 [middle of 5 runs]
400 K, 5677.1 kPa | 148.464 kg/m3 and 148.466 kg/m3
400 K, 5677.2 kPa | 148.477 kg/m3 and 148.472 kg/m3
400 K, 5677.4 kPa | 148.487 kg/m3 and 148.49 kg/m3
400 K, 5677.9 kPa | 148.509 kg/m3
400 K, 5678 kPa | 148.518 kg/m3 and 148.516 kg/m3 and 148.517 kg/m3
400 K, 5678.1 kPa | 148.519 kg/m3 and 148.526 kg/m3 and 148.518 kg/m3
400 K, 5678.2 kPa | 148.528 kg/m3 [middle of 13 runs]
400 K, 5678.3 kPa | 148.528 kg/m3 and 148.529 kg/m3
400 K, 5781.6 kPa | 155.313 kg/m3 and 155.311 kg/m3
400 K, 5781.7 kPa | 155.314 kg/m3 and 155.311 kg/m3
400 K, 6338.3 kPa | 196.876 kg/m3 and 196.877 kg/m3
400 K, 6338.4 kPa | 196.877 kg/m3 [middle of 5 runs]
400 K, 6338.5 kPa | 196.877 kg/m3
400 K, 6630.2 kPa | 219.389 kg/m3
400 K, 6630.3 kPa | 219.386 kg/m3 and 219.389 kg/m3
400 K, 6630.4 kPa | 219.389 kg/m3 [middle of 4 runs]
400 K, 6978.6 kPa | 243.19 kg/m3 and 243.192 kg/m3
400 K, 6978.7 kPa | 243.193 kg/m3 and 243.189 kg/m3 and 243.196 kg/m3
400 K, 6978.8 kPa | 243.19 kg/m3
400 K, 6978.9 kPa | 243.193 kg/m3
400 K, 7736.9 kPa | 280.444 kg/m3 and 280.447 kg/m3
400 K, 7737 kPa | 280.444 kg/m3
400 K, 7737.1 kPa | 280.449 kg/m3 and 280.444 kg/m3
400 K, 7737.2 kPa | 280.444 kg/m3
400 K, 7737.3 kPa | 280.449 kg/m3 and 280.45 kg/m3
400 K, 7912.9 kPa | 286.854 kg/m3
400 K, 7913.2 kPa | 286.868 kg/m3 and 286.866 kg/m3 and 286.857 kg/m3
400 K, 7913.4 kPa | 286.864 kg/m3
400 K, 10112 kPa | 336.235 kg/m3 [middle of 5 runs]

Reference: the NIST ThermoML archive (doi:10.1021/je900124n)
